From patent US8507436B2, “Peptides derived from plasminogen activator inhibitor-1 and uses thereof” (D-Pharm Ltd., priority 2007, dated 2013)
“And” between values parts separate entries of the source, which are not always exact repeats. Equal values may be shown once.

Key:
tPA [1] = target: T1, tPA (Rattus norvegicus, UniProt P19637); test: Infarct volume after embolic stroke in rats; format: in vivo; details: peptide 1 mg per kg in saline, absence of tPA
T1 construct: purchased Genentech, Inc., South San Francisco, Calif
T1 sequence (P19637 33-559): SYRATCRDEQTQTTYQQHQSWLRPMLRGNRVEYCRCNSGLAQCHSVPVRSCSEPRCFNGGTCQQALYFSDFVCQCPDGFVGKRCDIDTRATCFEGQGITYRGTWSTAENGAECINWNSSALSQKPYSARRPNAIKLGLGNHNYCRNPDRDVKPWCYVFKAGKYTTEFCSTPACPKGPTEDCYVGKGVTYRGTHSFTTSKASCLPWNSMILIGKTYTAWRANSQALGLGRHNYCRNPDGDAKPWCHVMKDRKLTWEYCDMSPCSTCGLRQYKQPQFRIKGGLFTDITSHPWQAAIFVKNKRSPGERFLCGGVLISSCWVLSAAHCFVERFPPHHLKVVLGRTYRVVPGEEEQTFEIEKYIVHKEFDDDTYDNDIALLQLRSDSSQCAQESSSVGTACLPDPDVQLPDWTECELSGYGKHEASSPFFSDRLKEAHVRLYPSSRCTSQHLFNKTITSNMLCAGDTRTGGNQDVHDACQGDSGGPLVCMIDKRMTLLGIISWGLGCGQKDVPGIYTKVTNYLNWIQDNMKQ
Description: (§1) Embolic stroke Embolic stroke was induced according to the previously reported microembolism model (Bdeir, K. et al. 2000 Blood 96, 1820-1826) as adapted to stroke (Atochin, D. N. et al. 2004. Stroke 35, 2177-2182). Microemboli were prepared, dissected, and homogenized as described (Bdeir K et al. 2000, supra). The suspension of microemboli used to induce stroke contained 1.4×10^6 microparticles, with an average diameter of 3 μm.
(§2) Experiments were performed in rats as described previously (Ding-Zhou, L. et al. 2002, supra) with some modifications. Briefly, Sprague-Dawley rats (mean weight 250 g) were anesthetized by i.p. injection of ketamine (75 mg per mL) and xylazine (5 mg per mL). The carotid artery was exposed and an arteriotomy was performed. A polyethylene catheter with an inner diameter of […] was used to inject the solution of microemboli (1.4×10^6 particles) directly into the exposed internal carotid artery. The catheter was flushed with 0.25 ml normal saline and carefully withdrawn. After washing the surgical site with saline containing 1 mM hexacapron, the incision was closed.
(§3) After induction of embolic stroke, rats were divided into 4 treatment groups (n=7 each): tPA (6 mg per kg) or tPA (6 mg per kg) with either peptide 206, peptide 218 O, or peptide 218 N (1 mg per kg) in normal saline were injected i.v., 2 hours after the catheter was withdrawn. Control groups received a vehicle consisting of normal saline alone or peptides 206 or 218 (1 mg per kg) in saline. 50% of the dose was given as a bolus injection and the remainder was infused over 60 min. The rats were returned to their cages after recovering from anesthesia. Twenty-four hours after the procedure, the rats were euthanized with an overdose of Nembutal and the infarct size was measured.
(§4) Measuring infarct volume The brain was removed and sectioned coronally into 2-mm segments. Brain slices were immersed in 2% 2,3,5-triphenyltetrazolium chloride (TTC) in saline, incubated for 30 minutes at 37° C. and placed in 4% formalin/PBS overnight. The area of infarction remains unstained, appearing white, making it clearly distinguishable from stained viable tissue. The sections were photographed and the infarct area measured using the NIH computer image analysis program. Infarct volume was defined as the sum of the unstained areas of all sections, multiplied by their thickness and expressed in cubic millimeters. Data are represented as mean±SE. Differences were analyzed by ANOVA followed by the t-test and the level of significance was corrected using a post-hoc analysis with the Bonferroni test. Statistical significance was set at P<0.05.
(§5) The effect of PAI-1 derived peptides on tPA treated rats after embolic stroke induced by injection of microthrombi directly into the MCA was also examined. […]

tPA [2] = test: Infarct volume after embolic stroke in rats; format: in vivo
Description: as §1, §2, §3, §4, §5

tPA [3] = target: T2, tPA (Homo sapiens, UniProt P00750); test: tPA-induced opening of the BBB in mice (Evans blue); format: in vivo; details: C57/B16 mice, 10 mg/kg tPA with 10 μM peptide i.v.
T2 construct: purchased Genentech, Inc., South San Francisco, Calif
T2 sequence (P00750 36-562): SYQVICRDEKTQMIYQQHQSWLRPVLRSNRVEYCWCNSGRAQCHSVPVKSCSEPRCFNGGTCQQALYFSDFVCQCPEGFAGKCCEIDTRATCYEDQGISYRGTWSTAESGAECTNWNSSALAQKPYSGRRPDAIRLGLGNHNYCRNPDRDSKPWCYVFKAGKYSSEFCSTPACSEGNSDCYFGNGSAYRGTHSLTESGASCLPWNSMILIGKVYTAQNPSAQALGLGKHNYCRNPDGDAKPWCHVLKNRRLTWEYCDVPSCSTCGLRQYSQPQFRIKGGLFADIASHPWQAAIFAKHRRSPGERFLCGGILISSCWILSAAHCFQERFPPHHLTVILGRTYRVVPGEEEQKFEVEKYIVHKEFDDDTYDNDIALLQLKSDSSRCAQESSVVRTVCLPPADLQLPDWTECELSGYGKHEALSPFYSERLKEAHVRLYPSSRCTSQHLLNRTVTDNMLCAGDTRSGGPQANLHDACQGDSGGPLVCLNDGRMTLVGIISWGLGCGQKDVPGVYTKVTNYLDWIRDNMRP
Description: The brain content of Evans blue was quantified by absorbance at 620 nm.

tPA [4] = target: T2, tPA; test: tPA-related mortality and intracranial hemorrhage after transient mechanical obstruction of the MCA in rats; format: in vivo
Description: MCA occlusion. All studies were conducted in accordance with the NIH Guide for the Care and Use of Laboratory Animals. Sprague-Dawley rats (mean weight 250 g) were fed on regular chow and allowed free access to drinking water. Rats were anesthetized with an i.p. injection of ketamine (75 mg per ml, Apharmo) and xylazine (5 mg per ml, Bayer). Body temperature was maintained at 37±0.5° C. by means of a heating lamp. Focal cerebral ischemia was induced by occluding the left MCA with an intraluminal filament (Ding-Zhou, L. et al. 2002 Eur J. Pharmacol. 457, 137-146). Briefly, the left common and external carotid arteries were isolated through a midline neck incision and ligated with a 4-0 silk suture (Ethicon). An arteriotomy was fashioned in the common carotid artery just proximal to the carotid bifurcation. A 4-0 nylon monofilament (Ethicon) was introduced through this incision into the internal carotid artery and advanced distal to the carotid bifurcation to occlude the origin of the MCA; the thread was carefully withdrawn 2 hours later. tPA alone at the indicated concentrations, tPA together with the PAI-1 derived peptides 206 (EEIIMD of SEQ ID NO: 11) or peptide 218 N (Ac-RMAPEEIIMDRPFLFVVR-amide of SEQ ID NO: 1) or peptide 218 O (Ac-RMAPEEIIMDRPFLYVVR-amide of SEQ ID NO: 2) were injected i.v. 2 hours after the thread had been withdrawn. Rats were returned to their cages after recovering from anesthesia. Twenty-four hours later. rats were euthanized with an overdose of Nembutal and the infarct size was measured.

tPA [5] = target: T3, tPA (Sus scrofa, UniProt Q8SQ23); test: Brain water content after fluid percussion brain injury (FPI) in piglets; format: in vivo, pigs; details: peptide 1 mg/kg i.v. 30 min prior to FPI, no exogenous tPA, normal 78.87±0.75%, vehicle after injury 84.1±0.45%
T3 construct: purchased Genentech, Inc., South San Francisco, Calif
T3 sequence (Q8SQ23 36-562): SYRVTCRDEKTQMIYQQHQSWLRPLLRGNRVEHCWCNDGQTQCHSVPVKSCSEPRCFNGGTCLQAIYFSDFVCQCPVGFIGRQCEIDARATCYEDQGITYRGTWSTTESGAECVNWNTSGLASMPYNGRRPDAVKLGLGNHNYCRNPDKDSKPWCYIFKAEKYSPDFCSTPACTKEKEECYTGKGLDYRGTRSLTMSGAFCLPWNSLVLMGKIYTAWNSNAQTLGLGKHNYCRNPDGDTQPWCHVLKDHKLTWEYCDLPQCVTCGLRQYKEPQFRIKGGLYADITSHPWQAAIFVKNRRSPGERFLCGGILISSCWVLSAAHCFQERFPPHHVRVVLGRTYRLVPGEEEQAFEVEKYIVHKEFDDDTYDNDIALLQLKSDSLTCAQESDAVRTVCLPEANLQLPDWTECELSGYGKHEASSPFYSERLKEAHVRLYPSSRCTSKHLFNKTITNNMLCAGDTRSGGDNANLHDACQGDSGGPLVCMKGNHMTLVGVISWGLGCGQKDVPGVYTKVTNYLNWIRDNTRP
Description: (§6) Fluid Percussion Brain Injury (FPI) method. The method was performed as described by Armstead et al., Nat. Neurosci.
(§7) Brain water content Brain water content (BWC) was determined by measuring the wet and dry weights of the brain tissue and by using the formula BWC=wet weight-dry weight/wet weight×100. Data were analyzed by analysis of variants with a Student-Newman-Keuls post-hoc test. A P<0.05 was considered significant.
(§8) Brain water content (BWC) was determined by measuring the wet and dry weights of the brain tissue and by using the formula BWC=wet weight-dry weight/wet weight×100. Data were analyzed by analysis of variants with a Fischer's post-hoc test. A P<0.05 was considered significant.

tPA [6] = test: as above; format: in vivo, pigs; details: for Brain water content after FPI in the presence of tPA: tPA 2 mg/kg i.v. with peptide 1 mg/kg i.v.
Description: as §6, §7, §8

tPA [7] = target: T2, tPA; format: in vivo; details: rats
Description: MCA occlusion. All studies were conducted in accordance with the NIH Guide for the Care and Use of Laboratory Animals. Sprague-Dawley rats (mean weight 250 g) were fed on regular chow and allowed free access to drinking water. Rats were anesthetized with an i.p. injection of ketamine (75 mg per ml, Apharmo) and xylazine (5 mg per ml, Bayer). Body temperature was maintained at 37±0.5° C. by means of a heating lamp. Focal cerebral ischemia was induced by occluding the left MCA with an intraluminal filament (Ding-Zhou, L. et al. 2002 Eur J. Pharmacol. 457, 137-146). Briefly, the left common and external carotid arteries were isolated through a midline neck incision and ligated with a 4-0 silk suture (Ethicon). An arteriotomy was fashioned in the common carotid artery just proximal to the carotid bifurcation. […] Twenty-four hours later. rats were euthanized with an overdose of Nembutal and the infarct size was measured.
Measuring infarct volume The brain was removed and sectioned coronally into 2-mm segments. […] The sections were photographed and the infarct area measured using the NIH computer image analysis program. […] Differences were analyzed by ANOVA followed by the t-test and the level of significance was corrected using a post-hoc analysis with the Bonferroni test. […]
The effect of the PAI-1 derived peptides on infarct size after transient mechanical obstruction of the MCA in rats treated with tPA was examined. tPA injected intravenously two hours after establishing reperfusion increased the infarct size from 16±4.6 to 48.333±8.7 mm3 (FIG. 2). […] The infarct size measured in the presence of peptide 206 was 20.333±4.8 while in the presence of peptide 218 N its size was only 13.3±3.6 mm3 (P<0.05; FIG. 2).
The effect of the PAI-1 derived peptides on infarct size was determined in rats that underwent MCA and reperfusion and four hours later treated with tPA alone or together with PAI-1 derived peptides. tPA injected intravenously four hours after establishing reperfusion increased the infarct size from 68±7 to 77±9 mm3 (FIG. 7).

| Compound | Post-stroke infarct size, peptide alone (tPA [1]) | Infarct volume, tPA with peptide (tPA [2]; tPA 6 mg per kg with peptide 1 mg per kg i.v. two hours after embolization) | Prevention of tPA-induced loss of BBB integrity (tPA [3]) | Absolute mortality, tPA co-injected with peptide (FIG. 6A) (tPA [4]; mechanical MCA obstruction, tPA alone 28.6%) [%] | Reduction of the tPA associated increase in mortality (FIG. 6B) (tPA [4]; mechanical MCA obstruction, tPA with peptide) [%] | tPA-induced mortality with peptide, in per cent from Table 1 (tPA [4]; tPA plus peptide, tPA alone ~29%) [%] | Brain water content after FPI (tPA [5]) [%] | Brain water content after FPI in the presence of tPA (tPA [6]) [%] | Infarct size, tPA with peptide four hours after reperfusion (FIG. 7) (tPA [7]; MCA and reperfusion, tPA co-injected with peptide four hours later) | Decrease of infarct volume by tPA alone (tPA [2]; tPA 6 mg per kg i.v. two hours after embolization) | Mortality, tPA alone, in per cent from Table 1 (tPA [4]; 6 out of 21) [%] | Mortality (dead rats/rats in group) (tPA [4]; Table 1, control 1/12) | Mortality rate, tPA alone (FIG. 6) (tPA [4]; mechanical MCA obstruction, tPA i.v. two hours after reperfusion, saline control 7.7%) [%] | Brain water content after FPI, tPA alone (tPA [6]; tPA 2 mg/kg i.v. without peptide) [%] | Infarct size, tPA alone four hours after reperfusion (tPA [7]; MCA and reperfusion, tPA i.v. four hours later, control 68±7) [mm3] | Infarct size, tPA alone (tPA [7]; mechanical MCA obstruction, tPA i.v. two hours after reperfusion, saline control 16±4.6) [mm3] |
| --- | --- | --- | --- | --- | --- | --- | --- | --- | --- | --- | --- | --- | --- | --- | --- | --- |
| CC[C@H](C)[C@H](NC(=O)[C@H](CCC(=O)O)NC(=O)[C@H](CCC(=O)O)NC(=O)[C@@H]1CCCN1C(=O)[C@H](C)NC(=O)[C@H](CCSC)NC(=O)[C@H](CCCNC(=N)N)NC(C)=O)C(=O)N[C@H](C(=O)N[C@@H](CCSC)C(=O)N[C@@H](CC(=O)O)C(=O)N[C@@H](CCCNC(=N)N)C(=O)N1CCC[C@H]1C(=O)N[C@@H](Cc1ccccc1)C(=O)N[C@@H](CC(C)C)C(=O)N[C@@H](Cc1ccccc1)C(=O)N[C@H](C(=O)N[C@H](C(=O)N[C@@H](CCCNC(=N)N)C(N)=O)C(C)C)C(C)C)[C@@H](C)CC [peptide 218 N, Ac-RMAPEEIIMDRPFLFVVR-amide] | significantly reduced post-stroke infarct size | smaller infarct volumes than those treated with tPA and peptide 206 or tPA and peptide 218 O | about 90% | 15.4 | 63 | 9 | 79.343±0.25 | 79.643±0.51 | significantly stronger than that of 218 O and 206 | – | – | – | – | – | – | – |
| EEIIMD [peptide 206, 6-mer peptide corresponding to amino acid residues 373-378 of human PAI-1] | little effect on infarct size | – | no effect | – | – | – | 81.379±0.3 | 82.351±0.55 | – | – | – | – | – | – | – | – |
| tPA: Recombinant tPA purchased from Genentech; thrombolytic agent, tissue-type plasminogen activator | – | – | – | – | – | – | – | – | – | approximately 48% | ~29 | 6 out of 21 and 6/21 | 28.6 | 87.12±0.6 | 77±9 | 48.333±8.7 |
